The results in this text go back to patent publication US9593149B2, “Amylin and calcitonin receptor agonist” (Novo Nordisk A/S, priority 2014, dated 2017).

Numbered stars: 1 amine (or outer) side, 2 acyl side, 3 side chain; on linkers, the order of the positions; unused ones are H or OH. Peptide text beside a SMILES is read from it. * marks the point of attachment. C20 diacid = O=C(O)CCCCCCCCCCCCCCCCCCC(=O)*; C18 diacid = O=C(O)CCCCCCCCCCCCCCCCC(=O)*; γGlu = O=C(O)[C@H](CCC(=O)[*:2])N[*:1]

Series [1] is described as follows: Assay (IV) determination of solubility. The class given is physicochemical. The protocol: Assay (IV)—Determination of Solubility
The mimylin peptide was dissolved in water at ˜500 nmol/ml and mixed 1:1 with a series of buffers (100 mM glycylglycine pH 3.0, 100 mM glycylglycine pH 4.0, 100 mM glycylglycine pH 5.0, 100 mM bistrispropane pH 6.0, 100 mM bistrispropane pH 6.5, 100 mM bistrispropane pH 7.0, 100 mM bistrispropane pH 7.5, 100 mM bistrispropane pH 8.0).

Series [2] can be described thus: Assay (IX) pK, T½ in mini-pig. In kind it is in vivo, Göttingen mini-pigs. Conditions: i.v. The protocol: Assay (IX)—pK—Determination of T½ in Mini-Pig
Pharmacokinetic (PK) studies in Göttingen mini-pigs were conducted in order to determine the T½ of the mimylin compound according to the Examples as indicated after i.v. administration.
T½ values of the amylin analogues of the invention is determined by pharmacokinetic studies in female Göttingen mini-pigs from Ellegaard Göttingen Minipigs ApS and the principles of laboratory animal care are followed.
An acclimatisation period of approximately 6-10 days was allowed before the animals entered the study. At start of the acclimatisation period the mini-pigs were about 5 to 12 months old and in the weight range of 15-35 kg. The mini-pigs had two central venous catheters inserted which were used for blood sampling.
The studies were conducted in an animal room which was illuminated to give a cycle of approximately 12 hours light and 12 hours darkness. The animals were housed individually. The animals had free access to domestic quality drinking water during the study, and no food restrictions applied for PK studies. The animals were weighed on arrival and on the days of dosing.
In the present studies the test substances were administered intravenously in approximately 5 nmol/kg dose. The animals received a single intravenous injection in one central venous catheter and blood sampling was performed from the other catheter, where possible. Each test substance was given to typically three but in some cases two or four animals.
A full plasma concentration-time profile, employing 12-16 sampling points, was obtained from each animal. In example blood samples were collected according to the following schedule:
After Intravenous Administration:
Pre-dose (0), 0.5, 1, 2, 4, 6, 8, 12, 24, 48, 72, 96, 120, 168 and 240 hours after injection. In some cases also additional blood samples up to 288 hours post injection were taken.
At each sampling time, 0.5 to 2 ml of blood was drawn from each animal. The blood samples were taken via the central venous catheter.
The 0.8 mL blood samples were collected into EDTA test tubes (8 mM EDTA). Blood samples were kept on ice for max 20 min. before centrifugation. Plasma was separated using centrifugation (i.e. at 4° C., 10 min., 2000G) and was immediately transferred to Micronic tubes on dry ice. Approximately 200 μl plasma was transferred to each Micronic tube. The plasma was stored at −20° C. until assayed. The plasma samples were assayed for the content of compound using LCMS.
The plasma concentration-time profiles were analysed by a non-compartmental pharmacokinetic analysis (NCA) using Phoenix WinNonlin 6.3 (Pharsight Inc., Mountain View, Calif., USA). NCA was performed using the individual plasma concentration-time profiles from each animal. T½ is the terminal half-life=In2/λz and was determined from λz, the first order rate constant associated with the terminal (log-linear) portion of the curve, estimated by linear regression of time vs. log concentration.
MS-Method for Amylin and Mimylin Quantification
40 μl plasma is diluted with 120 μl 66.67% EtOH+1% HCOOH and mixed. Centrifuged for 20 min. at 13000 rpm, 4° C. The supernatant is analyzed by an LC-MS method on a Sciex API 3000 and quantitated with a standard made up in plasma

Series [3] is described as follows: Assay (XV) subcutaneous PK in LYD-pigs, co-formulated or co-dosed with liraglutide. Conditions: administered as co-formulations to LYD pigs. In kind it is in vivo. The protocol: The studies were performed in female LYD pigs of SPF origin delivered from Lars Jonson, Hillerødvej 70, Lynge.
Before the animals arrived, the animal rooms and pens were cleaned and disinfected with Virkon S. During the study, the animal rooms were cleaned and washed regularly.
The pigs were group housed during the acclimatisation period. The pigs were fitted with a central venous catheter while under anaesthesia and after the single housed after catheterization in pens ≧3.1 m^2 with straw as bedding. The temperature in the rooms was set at 20−23° C. and the relative humidity to 30-70%. The rooms were illuminated to give a cycle of 12 hours light and 12 hours darkness. Light was on from 07.00 to 19.00 h.
The formulations was prepared similarly and filled in cartridges in all cases.
The animals were dosed subcutaneously as follows.
The s.c. dosing was performed in 4 mm depth, in a site of injection which was secured on beforehand by ultrasound to avoid muscular tissue or heavy vascularization. Dosing was made using NovoPen®4 and needle Novofine 28 G and a needle stopper to ensure 4 mm depth of injection. The needle was kept in the subcutis for 10 seconds after the injection to secure deposition of compound. […] The co-formulation was administered as one injection. Study was performed as a cross over study with adequate wash out between dosings.
Blood was sampled at predefined time points for up till 15 days post dosing to adequately cover the full plasma concentration-time profile of the mimylin derivative. Blood samples were drawn from a central venous catheter to jugularis made through the catheter which was afterwards flushed with 10 ml 0.9% NaCl.
For each blood sampling time point approximately 0.8 mL of whole blood was collected in a 1.5 mL EDTA coated tube, and the tube was gently turned to allowing mixing of the sample with the anticoagulant. Blood samples (for example 0.8 mL) were collected in EDTA buffer (8 mM) and then centrifuged at 4° C. and 2000 G for 10 minutes. Plasma was pipetted into Micronic tubes on dry ice, and kept at −20° C. until analysis.
Individual plasma concentration-time profiles were analysed by a non-compartmental model in Phoenix WinNonlin version 6.3 (Pharsight Inc., Mountain View, Calif., USA).
The area under the plasma concentration versus time curve (AUC, [time×concentration]) was calculated (by the Pharsight programme) after subcutaneous administration, typically until 240-288 hours post dosing, or until last measured concentration. The AUC was calculated and given as AUCinf-pred and dose normalized.
Results of co-formulation studies in LYD-pigs are summarized below

Regarding `CC(C)C[C@H](NC(=O)[C@H](C)NC(=O)[C@H](C)NC(=O)[C@@H](NC(=O)[C@H](CO)NC(=O)[C@H](CC(C)C)NC(=O)[C@H](CCC(=O)O)NC(=O)[C@H](CO)NC(=O)[C@H](C)NC(=O)[C@H](CCC(=O)O)NC(=O)CCCCCCCCCCCCCCCCC(=O)O)[C@@H](C)O)C(=O)NCC(=O)N[C@@H](CCCNC(=N)N)C(=O)N[C@@H](CC(C)C)C(=O)N[C@@H](CO)C(=O)N[C@@H](C)C(=O)N[C@@H](CCC(=O)O)C(=O)N[C@@H](CC(C)C)C(=O)N[C@@H](Cc1cnc[nH]1)C(=O)N[C@@H](CCC(=O)O)C(=O)N[C@@H](CC(C)C)C(=O)N[C@@H](C)C(=O)N[C@H](C(=O)N[C@@H](CC(C)C)C(=O)N1CCC[C@H]1C(=O)N[C@@H](CCCNC(=N)N)C(=O)N[C@H](C(=O)N[C@@H](CCC(=O)O)C(=O)N[C@H](C(=O)NCC(=O)N[C@@H](CO)C(=O)NCC(=O)N[C@@H](CO)C(=O)N1CCC[C@H]1C(N)=O)[C@@H](C)O)[C@@H](C)O)[C@@H](C)O` [compound 21, [N-terminal(C18 diacid), 30S, 31G]mimylin] ({C18 diacid}-EASELSTAALGRLSAELHELATLPRTETGSGSP-NH2), the Solubility result in series [1] (pH 3.0), in series [1] (pH 4.0), in series [1] (pH 5.0), in series [1] (pH 6.0), in series [1] (pH 6.5) and in series [1] (pH 7.0) was “≧200 μM” in each case. In addition, the Solubility entry in series [1] (pH 7.5) and in series [1] (pH 8.0) was “≧200 μM” each time. In addition, in series [2], the “PK mini pig iv T½” value turned out to be 118 h.
On to `CC(C)C[C@H](NC(=O)[C@H](C)NC(=O)[C@H](C)NC(=O)[C@@H](NC(=O)[C@H](CO)NC(=O)[C@H](CC(C)C)NC(=O)[C@H](CCC(=O)O)NC(=O)[C@H](CO)NC(=O)[C@H](C)NC(=O)CC[C@H](NC(=O)CCCCCCCCCCCCCCCCCCC(=O)O)C(=O)O)[C@@H](C)O)C(=O)NCC(=O)N[C@@H](CCCNC(=N)N)C(=O)N[C@@H](CC(C)C)C(=O)N[C@@H](CO)C(=O)N[C@@H](C)C(=O)N[C@@H](CCC(=O)O)C(=O)N[C@@H](CC(C)C)C(=O)N[C@@H](Cc1cnc[nH]1)C(=O)N[C@@H](CCC(=O)O)C(=O)N[C@@H](CC(C)C)C(=O)N[C@@H](C)C(=O)N[C@H](C(=O)N[C@@H](CC(C)C)C(=O)N1CCC[C@H]1C(=O)N[C@@H](CCCNC(=N)N)C(=O)N[C@H](C(=O)N[C@@H](CCC(=O)O)C(=O)N[C@H](C(=O)NCC(=O)N[C@@H](CO)C(=O)NCC(=O)N[C@@H](CO)C(=O)N1CCC[C@H]1C(N)=O)[C@@H](C)O)[C@@H](C)O)[C@@H](C)O` [Ex. #40, [N-terminal(C20 diacid-gGlu), des1, 30S, 31G]mimylin] ({C20 diacid-γGlu}-ASELSTAALGRLSAELHELATLPRTETGSGSP-NH2), for which the Solubility result in series [1] (pH 3.0), in series [1] (pH 4.0), in series [1] (pH 5.0), in series [1] (pH 6.0), in series [1] (pH 6.5) and in series [1] (pH 7.0) was “≧200 μM” each time. Besides, the Solubility entry in series [1] (pH 7.5) and in series [1] (pH 8.0) was “≧200 μM” in each case. Also, the “PK mini pig iv T½” value in series [2] is listed as 171 h.
For the molecule `CC(C)C[C@H](NC(=O)[C@H](C)NC(=O)[C@H](C)NC(=O)[C@@H](NC(=O)[C@H](CO)NC(=O)[C@H](CC(C)C)NC(=O)[C@H](CCC(=O)O)NC(=O)[C@H](CO)NC(=O)[C@H](C)NC(=O)[C@H](CCC(=O)O)NC(=O)CCCCCCCCCCCCCCCCCCC(=O)O)[C@@H](C)O)C(=O)NCC(=O)N[C@@H](CCCNC(=N)N)C(=O)N[C@@H](CC(C)C)C(=O)N[C@@H](CO)C(=O)N[C@@H](C)C(=O)N[C@@H](CCC(=O)O)C(=O)N[C@@H](CC(C)C)C(=O)N[C@@H](Cc1cnc[nH]1)C(=O)N[C@@H](CCC(=O)O)C(=O)N[C@@H](CC(C)C)C(=O)N[C@@H](C)C(=O)N[C@H](C(=O)N[C@@H](CC(C)C)C(=O)N1CCC[C@H]1C(=O)N[C@@H](CCCNC(=N)N)C(=O)N[C@H](C(=O)N[C@@H](CCC(=O)O)C(=O)N[C@H](C(=O)NCC(=O)N[C@@H](CO)C(=O)NCC(=O)N[C@@H](CO)C(=O)N1CCC[C@H]1C(N)=O)[C@@H](C)O)[C@@H](C)O)[C@@H](C)O` [compound 22, [N-terminal(C20 diacid), 30S, 31G]mimylin] ({C20 diacid}-EASELSTAALGRLSAELHELATLPRTETGSGSP-NH2), the Solubility entry in series [1] (pH 3.0), in series [1] (pH 4.0), in series [1] (pH 5.0), in series [1] (pH 6.0), in series [1] (pH 6.5) and in series [1] (pH 7.0) was “≧200 μM” each time. For the same molecule, the Solubility entry in series [1] (pH 7.5) and in series [1] (pH 8.0) was “≧200 μM” throughout. Besides, in series [2], the “PK mini pig iv T½” value stood at 108 h.
For the molecule `CCCCCCCCCCCCCCCC(=O)N[C@@H](CCC(=O)NCCCC[C@H](NC(=O)[C@H](C)NC(=O)[C@H](C)NC(=O)[C@H](CCC(N)=O)NC(=O)CNC(=O)[C@H](CCC(=O)O)NC(=O)[C@H](CC(C)C)NC(=O)[C@H](Cc1ccc(O)cc1)NC(=O)[C@H](CO)NC(=O)[C@H](CO)NC(=O)[C@@H](NC(=O)[C@H](CC(=O)O)NC(=O)[C@H](CO)NC(=O)[C@@H](NC(=O)[C@H](Cc1ccccc1)NC(=O)[C@@H](NC(=O)CNC(=O)[C@H](CCC(=O)O)NC(=O)[C@H](C)NC(=O)[C@@H](N)Cc1cnc[nH]1)[C@@H](C)O)[C@@H](C)O)C(C)C)C(=O)N[C@@H](CCC(=O)O)C(=O)N[C@@H](Cc1ccccc1)C(=O)N[C@H](C(=O)N[C@@H](C)C(=O)N[C@@H](Cc1c[nH]c2ccccc12)C(=O)N[C@@H](CC(C)C)C(=O)N[C@H](C(=O)N[C@@H](CCCNC(=N)N)C(=O)NCC(=O)N[C@@H](CCCNC(=N)N)C(=O)NCC(=O)O)C(C)C)[C@@H](C)CC)C(=O)O` [Liraglutide, N^ε26-[(4S)-4-carboxy-4-(hexadecanoylamino)butanoyl]-[Arg^34]-GLP-1-(7-37)-peptide, reference compound], the “effect on PK profile of the co-formulated peptide” value in series [3] is recorded as “not affect the PK profile of Ex. compound 2 or 46”.
